Results from ChEMBL document CHEMBL1148514, “Development of lipopeptides for inhibiting 20S proteasomes” (Bioorg Med Chem Lett, 2006).
pKi: −log10 of the molar value. Residues, ends and D or L forms follow the SMILES beside them.

Tests used:
[1] = molecular target: T1, Proteasome Macropain subunit (Saccharomyces cerevisiae S288c) (UniProt P22141); assay: Inhibition of trypsin like activity of yeast 20S proteasome at 80 uM
T1 sequence (whole entry): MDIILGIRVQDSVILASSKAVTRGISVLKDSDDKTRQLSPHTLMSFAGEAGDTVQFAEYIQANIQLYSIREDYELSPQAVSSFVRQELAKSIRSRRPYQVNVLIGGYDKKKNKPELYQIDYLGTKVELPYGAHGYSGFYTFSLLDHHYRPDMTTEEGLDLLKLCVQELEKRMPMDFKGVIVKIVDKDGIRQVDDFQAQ

[2] = molecular target: T2, Proteasome Macropain subunit PRE2 (Saccharomyces cerevisiae S288c, UniProt P30656); assay: Inhibition of chymotrypsin like activity of yeast 20S proteasome
T2 sequence (P30656 whole entry): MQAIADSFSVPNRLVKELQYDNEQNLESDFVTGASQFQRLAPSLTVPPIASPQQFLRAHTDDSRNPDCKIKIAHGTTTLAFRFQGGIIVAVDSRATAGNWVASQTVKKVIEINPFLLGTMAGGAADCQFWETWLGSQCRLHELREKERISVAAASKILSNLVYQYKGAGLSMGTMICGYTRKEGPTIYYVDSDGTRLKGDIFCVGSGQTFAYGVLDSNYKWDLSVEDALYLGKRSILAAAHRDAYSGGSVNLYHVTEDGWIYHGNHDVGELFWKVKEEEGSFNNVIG

[3] = molecular target: T3, Proteasome component C5 (Saccharomyces cerevisiae S288c) (UniProt P23724); assay: Inhibition of post acid activity of yeast 20S proteasome at 80 uM
T3 sequence (whole entry): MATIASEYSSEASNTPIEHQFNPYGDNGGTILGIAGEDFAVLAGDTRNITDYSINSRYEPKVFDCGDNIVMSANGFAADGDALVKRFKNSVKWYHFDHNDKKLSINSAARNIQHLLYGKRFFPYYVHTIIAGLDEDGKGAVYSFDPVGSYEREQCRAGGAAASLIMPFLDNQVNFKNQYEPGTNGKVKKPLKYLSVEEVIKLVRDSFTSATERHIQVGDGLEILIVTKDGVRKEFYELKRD

[4] = molecular target: T4, Proteasome Macropain subunit (Saccharomyces cerevisiae S288c, UniProt P22141); assay: Inhibition of trypsin like activity of yeast 20S proteasome
T4 sequence (P22141 whole entry): T1 sequence (whole entry)

Proteasome component C5 = molecular target: T5, Proteasome component C5 (Saccharomyces cerevisiae S288c, UniProt P23724); assay: Inhibition of post acid activity of yeast 20S proteasome
T5 sequence (P23724 whole entry): T3 sequence (whole entry)

[5] = molecular target: T3, Proteasome component C5 (Saccharomyces cerevisiae S288c); assay: Activation of post acid activity of yeast 20S proteasome
[6] = molecular target: T1, Proteasome Macropain subunit (Saccharomyces cerevisiae S288c); assay: Inhibition of trypsin like activity of yeast 20S proteasome at 625 uM

Activity [5] | inhibition [6] | Molecule | inhibition [1] | pKi [2] | inhibition [3] | pKi [4] | pKi (Proteasome component C5)
 |  | CCCCCC(=O)N[C@H](C(=O)N[C@H](C(=O)N[C@H](C(=O)N[C@@H](Cc1ccccc1)C(=O)N[C@@H](CC(=O)O)C(=O)N[C@@H](Cc1ccc(O)cc1)C(=O)O)[C@@H](C)O)[C@@H](C)CC)[C@@H](C)O (HELM PEPTIDE1{[CCCCCC(=O)[*:2]].T.I.T.F.D.Y}$$$$V2.0) | < 10% | 4.47 | < 10% |  | 
 |  | CCCCCC(=O)N[C@H](C(=O)N[C@H](C(=O)N[C@H](C(=O)N[C@@H](Cc1ccccc1)C(=O)N[C@@H](CCCCN)C(=O)N[C@@H](Cc1ccccc1)C(=O)O)[C@@H](C)O)C(C)C)[C@@H](C)O (HELM PEPTIDE1{[CCCCCC(=O)[*:2]].T.V.T.F.K.F}$$$$V2.0) | < 10% | 4.37 | < 10% |  | 
 |  | CCCCCC(=O)N[C@H](C(=O)N[C@H](C(=O)N[C@H](C(=O)N[C@@H](Cc1ccc(O)cc1)C(=O)N[C@@H](CCCCN)C(=O)N[C@@H](Cc1ccccc1)C(=O)O)[C@@H](C)O)C(C)C)[C@@H](C)O (HELM PEPTIDE1{[CCCCCC(=O)[*:2]].T.V.T.Y.K.F}$$$$V2.0) |  | 4.10 | < 10% | 3.50 | 
 |  | CCCCCC(=O)N[C@@H](Cc1ccc(O)cc1)C(=O)N[C@@H](CCC(=O)O)C(=O)N[C@@H](CC(C)C)C(=O)O (HELM PEPTIDE1{[CCCCCC(=O)[*:2]].Y.E.L}$$$$V2.0) | < 10% | < 4.10 |  |  | 4.23
 |  | CCCCCCCC(=O)N[C@H](C(=O)N[C@H](C(=O)N[C@H](C(=O)N[C@@H](Cc1ccccc1)C(=O)N[C@@H](CC(=O)O)C(=O)N[C@@H](Cc1ccc(O)cc1)C(=O)O)[C@@H](C)O)[C@@H](C)CC)[C@@H](C)O (HELM PEPTIDE1{[CCCCCCCC(=O)[*:2]].T.I.T.F.D.Y}$$$$V2.0) | < 10% | 4.37 |  |  | < 4.10
 |  | CCCCCCCC(=O)N[C@H](C(=O)N[C@H](C(=O)N[C@H](C(=O)N[C@@H](Cc1ccccc1)C(=O)N[C@@H](CCCCN)C(=O)N[C@@H](Cc1ccccc1)C(=O)O)[C@@H](C)O)C(C)C)[C@@H](C)O (HELM PEPTIDE1{[CCCCCCCC(=O)[*:2]].T.V.T.F.K.F}$$$$V2.0) |  | < 4.10 |  |  | 
 |  | CCCCCCCCCC(=O)N[C@H](C(=O)N[C@H](C(=O)N[C@H](C(=O)N[C@@H](Cc1ccccc1)C(=O)N[C@@H](CC(=O)O)C(=O)N[C@@H](Cc1ccc(O)cc1)C(=O)O)[C@@H](C)O)[C@@H](C)CC)[C@@H](C)O (HELM PEPTIDE1{[CCCCCCCCCC(=O)[*:2]].T.I.T.F.D.Y}$$$$V2.0) |  | 4.43 |  |  | 
 |  | CCCCCCCCCC(=O)N[C@H](C(=O)N[C@H](C(=O)N[C@H](C(=O)N[C@@H](Cc1ccccc1)C(=O)N[C@@H](CCCCN)C(=O)N[C@@H](Cc1ccccc1)C(=O)O)[C@@H](C)O)C(C)C)[C@@H](C)O (HELM PEPTIDE1{[CCCCCCCCCC(=O)[*:2]].T.V.T.F.K.F}$$$$V2.0) |  | 4.55 |  |  | 
 |  | CCCCCCCCCCCC(=O)N[C@H](C(=O)N[C@H](C(=O)N[C@H](C(=O)N[C@@H](Cc1ccccc1)C(=O)N[C@@H](CC(=O)O)C(=O)N[C@@H](Cc1ccc(O)cc1)C(=O)O)[C@@H](C)O)[C@@H](C)CC)[C@@H](C)O (HELM PEPTIDE1{[CCCCCCCCCCCC(=O)[*:2]].T.I.T.F.D.Y}$$$$V2.0) |  | < 4.10 |  | < 4.10 | < 4.10
1.2 |  | CCCCCCCCCCCC(=O)N[C@H](C(=O)N[C@H](C(=O)N[C@H](C(=O)N[C@@H](Cc1ccc(O)cc1)C(=O)N[C@@H](CCCCN)C(=O)N[C@@H](Cc1ccccc1)C(=O)O)[C@@H](C)O)C(C)C)[C@@H](C)O (HELM PEPTIDE1{[CCCCCCCCCCCC(=O)[*:2]].T.V.T.Y.K.F}$$$$V2.0) |  | < 4.10 |  | 4.17 | 
1.2 |  | CCCCCCCCCCCCCC(=O)N[C@H](C(=O)N[C@H](C(=O)N[C@H](C(=O)N[C@@H](Cc1ccc(O)cc1)C(=O)N[C@@H](CCCCN)C(=O)N[C@@H](Cc1ccccc1)C(=O)O)[C@@H](C)O)C(C)C)[C@@H](C)O (HELM PEPTIDE1{[CCCCCCCCCCCCCC(=O)[*:2]].T.V.T.Y.K.F}$$$$V2.0) |  |  |  | 4.10 | 
 |  | CCCCCCCCCCCCCCC(N)C(=O)N[C@@H](Cc1ccc(O)cc1)C(=O)N[C@@H](CCC(=O)O)C(=O)N[C@H](C(=O)O)[C@@H](C)O (some centres not stated) (HELM PEPTIDE1{[CCCCCCCCCCCCCCC(N)C(=O)[*:2]].Y.E.T}$$$$V2.0) |  | 5.30 |  |  | 5.10
 |  | CCCCCCCCCCCCCCCC(=O)N[C@@H](Cc1ccccc1)C(=O)N[C@@H](CCCCN)C(=O)N[C@@H](Cc1ccccc1)C(=O)O (HELM PEPTIDE1{[CCCCCCCCCCCCCCCC(=O)[*:2]].F.K.F}$$$$V2.0) |  | 4.52 | < 10% | < 4.10 | 
1.5 |  | CCCCCCCCCCCCCCCC(=O)N[C@H](C(=O)N[C@H](C(=O)N[C@H](C(=O)N[C@@H](Cc1ccccc1)C(=O)N[C@@H](CC(=O)O)C(=O)N[C@@H](Cc1ccc(O)cc1)C(=O)O)[C@@H](C)O)[C@@H](C)CC)[C@@H](C)O (HELM PEPTIDE1{[CCCCCCCCCCCCCCCC(=O)[*:2]].T.I.T.F.D.Y}$$$$V2.0) | < 10% | 4.10 |  |  | 
 |  | CCCCCCCCCCCCCCCC(=O)N[C@@H](Cc1ccc(O)cc1)C(=O)N[C@@H](CC(=O)O)C(=O)N[C@@H](CC(C)C)C(=O)O (HELM PEPTIDE1{[CCCCCCCCCCCCCCCC(=O)[*:2]].Y.D.L}$$$$V2.0) |  | 4.70 |  | < 4.10 | 4.82
 |  | CCCCCCCCCCCCCCCC(=O)N[C@@H](Cc1ccc(O)cc1)C(=O)N[C@@H](CCC(=O)O)C(=O)N[C@@H](CC(C)C)C(=O)O (HELM PEPTIDE1{[CCCCCCCCCCCCCCCC(=O)[*:2]].Y.E.L}$$$$V2.0) |  | 4.74 |  | < 4.10 | 4.82
 |  | CCCCCCCCCCCCCCCC(=O)N[C@@H](Cc1ccc(O)cc1)C(=O)N[C@@H](CCC(=O)O)C(=O)N[C@H](C(=O)O)[C@@H](C)O (HELM PEPTIDE1{[CCCCCCCCCCCCCCCC(=O)[*:2]].Y.E.T}$$$$V2.0) |  | 4.70 |  |  | 4.68
 |  | CCCCCCCCCCCCCCCC(=O)N[C@@H](Cc1ccc(O)cc1)C(=O)N[C@@H](CCCCN)C(=O)N[C@@H](Cc1ccccc1)C(=O)O (HELM PEPTIDE1{[CCCCCCCCCCCCCCCC(=O)[*:2]].Y.K.F}$$$$V2.0) |  | 4.09 | < 10% | < 4.10 | 
 |  | CCCCCCCCCCCCCCCC(=O)N[C@@H](Cc1ccc(O)cc1)C(=O)N[C@@H](CC(N)=O)C(=O)N[C@H](C(=O)O)[C@@H](C)O (HELM PEPTIDE1{[CCCCCCCCCCCCCCCC(=O)[*:2]].Y.N.T}$$$$V2.0) |  | 4.52 |  |  | 
 | < 10% | H-TISYDY-OH |  | < 3.20 |  |  | < 3.20
 | < 10% | H-TITFDY-OH |  | < 3.20 |  |  | < 3.20
 | < 10% | H-TVSYKF-OH |  | < 3.20 |  |  | < 3.20
 | < 10% | H-TVTYKY-OH |  | < 3.20 |  |  | < 3.20

Molecule | Activity [5] | inhibition [6] | inhibition [1] | pKi [2] | inhibition [3] | pKi [4] | pKi (Proteasome component C5)
CCCCCCCCCC(=O)N[C@H](C(=O)N[C@H](C(=O)N[C@H](C(=O)N[C@@H](Cc1ccc(O)cc1)C(=O)N[C@@H](CCCCN)C(=O)N[C@@H](Cc1ccccc1)C(=O)O)[C@@H](C)O)C(C)C)[C@@H](C)O (HELM PEPTIDE1{[CCCCCCCCCC(=O)[*:2]].T.V.T.Y.K.F}$$$$V2.0) | 1.2 |  | < 10% | 4.14 |  |  | 
H-TITYDL-OH |  | < 10% |  | 3.21 |  |  | < 3.20
H-TVTFKF-OH |  | < 10% |  | 3.86 |  |  | 3.83
